Laboratory results taken from patent US20240293430A1, “WITHAFERIN A AND IMMUNE CHECKPOINT BLOCKER COMBINATION THERAPIES” (University of South Florida, priority 2023, published 2024).

What was measured:
[1] = test system: PD-L1 in NRF-2 knockdown LLC or H1650 cells; assay: NRF-2 siRNA knockdown then WFA, PD-L1 by flow cytometry; type: cell-based, mouse (LLC), human (H1650); conditions: WFA 24 h after siRNA, similar to scramble controls
[2] = test system: secreted HMGB-1 from LLC cells; assay: HMGB-1 ELISA of supernatants; type: cell-based, mouse; conditions: 0.6 μM WFA, 48 h
Experimental: Cells were treated with WFA for 48 h then collected using Accutase cell detachment solution. […] (FIG. 2E) Bone marrow-derived DC were co-cultured with WFA-pretreated LLC cells (24 h) in a ratio 5:1 of DC:LLC cells for 24 h.
LLC cells were plated and treated with WFA or doxorubicin (ICD inducer) for 48 h. Supernatants were collected and centrifuged at 1000 RPM for 10 min. The levels of secreted HMGB-1 were measured using the HMGB-1 detection ELISA kit (Chondrex, 6010, Woodinville, WA, USA) according to the manufacturer's protocol.

[3] = test system: NSCLC cell lines (LLC, H1650, A549); assay: Annexin V apoptosis assay (flow cytometry); type: cell-based, mouse (LLC), human (H1650; conditions: 48 h, compared to untreated cells
Experimental: FIGS. 1A-lE depict that WFA induces ER stress-mediated apoptosis in NSCLC cell lines. (FIG. 1A) NSCLC cells were plated on 96-well plates and treated with different concentrations of WFA ([…]) in triplicates. Forty-eight hours post-treatment, cell viability was determined using Cell Titer-Glo assay. Luminescence values were normalized to control untreated cells and IC50 values are represented as the mean of two independent experiments ±SEM. (FIG. 1B) NSCLC cells were treated WFA for forty-eight hours, then collected to measure apoptotic cell death using Annexin V assay in LLC cells, H1650 cells, and A549 cells. Percentages of early (annexin*DAPI-) and late (annexin*DAPI+) apoptotic cells are represented as means of two separate experiments ±SEM and statistical significance was calculated using one-way ANOVA and a Fisher LSD post hoc test was used to compare the mean of each group to that of the control group. (FIGS. 1C-1D) WFA treated cells were collected in Trizol and total RNA was isolated to measure the levels of Bax (FIG. 1C) and Bcl2 (FIG. 1D) mRNA using qRT-PCR. PCR experiments were repeated at least twice, and one representative experiment is shown as mean±SEM of the technical replicates. […] The quantification of western blot band density was performed using Image J software v.1.54d and normalized to housekeeping control protein in LLC cells (0-actin). […]

[4] = test system: tumor-immune infiltration and ecto-CRT in LLC tumors; assay: LLC syngeneic mouse model, flow cytometry of collected tumors; type: in vivo, C57BL/6 mice
Experimental: FIGS. 5A-5G depict that WFA sensitizes flank tumors to α-PD-L1 therapy and targets immunosuppressive MDSCs and T-regs. (FIG. 5A) Establishment of LLC flank tumors and treatment schedule. (FIG. 5B) Tumor volume measurement in mm^3 and tumor weight at the endpoint of the experiment. (FIG. 5C) Change in the levels of ecto-CRT in tumors was measured using flow cytometry. (FIGS. 5D-5G) Flow cytometry was used to determine the change in immune cell infiltration in collected tumors. […] Moreover, WFA reduced the immunosuppressive T regs (FIG. 5F) and CD11b+Gr1+MDSC (FIG. 5G) populations. The means of two independent experiments ±SEM are shown, and the statistical significance was calculated using one-way ANOVA and a Fisher LSD post hoc test where * and #represent p<0.05 and ** and ##represent p<0.01. * Symbols refer to the difference between the vehicle control and WFA, while #refers to comparisons between the vehicle control and WFA+α-PD-L1 combination.
FIGS. 12A-12D depicts the gating strategy used to determine tumor immune infiltration in LLC tumors and spleens. […] Out of the CD11b population, we gated the monocytic CD11b+Ly6C+ and CD11b+Ly6G+granulocytic MDSCs. (FIG. 12B) For the T-cell panel, the total CD-3 population was gated out of the live single cells. Consequently, CD4, CD25+CD4+Tregs and CD8 population were gated out of CD-3 cells based on the FMO controls. (FIGS. 12C-12D) Mice body weights were measured at the endpoint of the experiment and represented as mean±SEM. The means were compared to the vehicle control using Fisher LSD post-hoc test. * p<0.05.
In vitro WFA-treated or control cells were collected using Accutase cell detachment solution and stained with FACS-diluted (PBS, 10% FBS, 2 mMEDTA) pre-titrated fluorophore conjugated or primary unconjugated antibody solutions (Table 1) for 30 min on ice in the dark. In case of fluorophore-conjugated antibodies, samples are washed and immediately acquired after adding DAPI viability dye, while samples stained with unconjugated antibodies are incubated with the proper secondary fluorophore-conjugated antibody for 30 min before washing and acquisition. For in vivo experiments, the processed tumor or spleen single cell suspensions were used for surface staining with the pre-titrated antibodies (Table 1) for 30 min on ice in the dark. To exclude the dead cells from the analysis, a fixable live/dead Zombie Aqua viability kit (Biolegend, San Diego, CA, USA) was used according to the manufacturer's protocol. Samples were then fixed using 2% PFA for 15 min then washed and stored at 4° C. before acquisition. Samples were acquired using a Becton Dickenson Biosciences (BD, Franklin Lakes, NJ, USA) FACS Canto II or LSR II system at the University of South Florida COM Fred Wright Jr Flow Cytometry Core.
C57BL/6 mice were purchased from the Jackson Laboratory (Bar Harbor, ME, USA) and acclimated for a week. To establish the LLC syngeneic tumors, C57BL/6 mice were injected with a half million cells on the right flank and monitored until tumors were first palpable (2-3 mm diameter). […] Treatments were administered every other day with a total of five treatments and mice body weights and tumor volumes were monitored using a caliper (Fisher Scientific, Waltham, MA, USA, 15-077-957). Tumor volumes (mm^3) were calculated using the equation ([…]), where the length is defined as the bigger tumor dimension. […]

With `CC1=C(CO)C(=O)O[C@@H]([C@@H](C)[C@H]2CC[C@H]3[C@@H]4C[C@H]5O[C@]56[C@@H](O)C=CC(=O)[C@]6(C)[C@H]4CC[C@]23C)C1` [WFA, Withaferin A] the “PD-L1 in NRF-2 knockdown cells” value [1] was “still upregulated”, the “HMGB-1 levels secreted in the supernatants” value [2] was “increased” and the “early and late apoptotic cell populations” value [3] was “significant increase”. For the same compound, the “CD11b+Gr1+ MDSCs in the tumor” value [4] was “reducing”, the “CD25+CD4+ T-regs in the tumor” value [4] was “reducing” and the “levels of ecto-CRT in vivo” value ([4]; vs control mice) was “increased”. The “CD8 T-cell infiltration” value ([4]; vs vehicle control) was “increasing” and the “T-cell activation markers CD69 and 41BB” value ([4]; vs vehicle control) was “not significant”.
